In patent US20250243189A1, “HERBICIDAL IMIDAZOLE-CONTAINING COMPOUNDS” (SYNGENTA CROP PROTECTION AG, priority 2022, published 2025):

Tests used:
Assay type in all cases: in vivo
Settings in all cases: 250 g/ha, evaluated after 13 days, five-point scale
[1] = system: AMAPA; assay: Post-emergence herbicidal glasshouse test
Method: [Worded in the source for another organism; this organism is reported under the same test.] (§1) Seeds of a variety of test species are sown in standard soil in pots Amaranthus retoflexus (AMARE), Echinochloa crus-galli (ECHCG), Setaria faberi (SETFA)). After cultivation for one day (pre-emergence) or after 8 days cultivation (post-emergence) under controlled conditions in a glasshouse (at 24/16° C., day/night; 14 hours light; 65% humidity), the plants are sprayed with an aqueous spray solution derived from the formulation of the technical active ingredient in acetone/water (50:50) solution containing 0.5% Tween 20 (polyoxyethelyene sorbitan monolaurate, CAS RN 9005-64-5). Compounds are applied at 250 g/ha unless otherwise stated. The test plants are then grown in a glasshouse under controlled conditions in a glasshouse (at 24/16° C., day/night; 14 hours light; 65% humidity) and watered twice daily. After 13 days for pre and post-emergence, the test is evaluated for the percentage damage caused to the plant. The biological activities are shown in the following table on a five-point scale (5=81-100%; 4=61-80%; 3=41-60%; 2=21-40%; 1=0-20%).

[2] = system: Amaranthus retoflexus (AMARE); assay: Post-emergence herbicidal glasshouse test
Method: as §1

[3] = system: Echinochloa crus-galli (ECHCG); assay: Post-emergence herbicidal glasshouse test
Method: as §1

[4] = system: IPOHE; assay: Post-emergence herbicidal glasshouse test
Method: as §1

[5] = system: Setaria faberi (SETFA); assay: Post-emergence herbicidal glasshouse test
Method: as §1

[6] = system: AMAPA; assay: Pre-emergence herbicidal glasshouse test
Method: [Worded in the source for another organism; this organism is reported under the same test.] as §1

[7] = system: Amaranthus retoflexus (AMARE); assay: Pre-emergence herbicidal glasshouse test
Method: as §1

[8] = system: Echinochloa crus-galli (ECHCG); assay: Pre-emergence herbicidal glasshouse test
Method: as §1

[9] = system: IPOHE; assay: Pre-emergence herbicidal glasshouse test
Method: as §1

[10] = system: Setaria faberi (SETFA); assay: Pre-emergence herbicidal glasshouse test
Method: as §1

Compound	percentage damage caused to the plant, AMAPA [1]	percentage damage caused to the plant, AMARE [2]	percentage damage caused to the plant, ECHCG [3]	percentage damage caused to the plant, IPOHE [4]	percentage damage caused to the plant, SETFA [5]	percentage damage caused to the plant, AMAPA [6]	percentage damage caused to the plant, AMARE [7]	percentage damage caused to the plant, ECHCG [8]	percentage damage caused to the plant, IPOHE [9]	percentage damage caused to the plant, SETFA [10]
FC(F)(F)c1cn(Cc2ncc(Cl)cn2)c(-c2cc(Cl)sc2Cl)n1 [Compound 1.037]	3 (3=41-60%)	4 (4=61-80%)	3 (3=41-60%)	3 (3=41-60%)	3 (3=41-60%)	5 (5=81-100%)	5 (5=81-100%)	4 (4=61-80%)	5 (5=81-100%)	4 (4=61-80%)
Cc1ccc(-c2nc(C(F)F)cn2Cc2ncc(Cl)cn2)s1 [Compound 1.068]	2 (2=21-40%)	3 (3=41-60%)	1 (1=0-20%)	1 (1=0-20%)	1 (1=0-20%)	5 (5=81-100%)	5 (5=81-100%)	3 (3=41-60%)	4 (4=61-80%)	4 (4=61-80%)
FC(F)(F)c1cn(Cc2ncc(Cl)cn2)c(-c2cccs2)n1 [Compound 1.034]	4 (4=61-80%)	4 (4=61-80%)	2 (2=21-40%)	4 (4=61-80%)	2 (2=21-40%)	5 (5=81-100%)	5 (5=81-100%)	2 (2=21-40%)	2 (2=21-40%)	2 (2=21-40%)
Fc1cnn(-c2nc(C(F)(F)F)cn2Cc2ncc(Cl)cn2)c1 [Compound 1.067]	3 (3=41-60%)	4 (4=61-80%)	1 (1=0-20%)	2 (2=21-40%)	1 (1=0-20%)	4 (4=61-80%)	5 (5=81-100%)	1 (1=0-20%)	2 (2=21-40%)	1 (1=0-20%)
FC(F)(F)c1cn(Cc2ncc(Cl)cn2)c(-n2ccc(Cl)n2)n1 [Compound 1.066]	3 (3=41-60%)	4 (4=61-80%)	1 (1=0-20%)	4 (4=61-80%)	1 (1=0-20%)	5 (5=81-100%)	5 (5=81-100%)	1 (1=0-20%)	4 (4=61-80%)	2 (2=21-40%)
FC(F)(F)c1cn(Cc2ncc(Cl)cn2)c(-c2cnc(Cl)s2)n1 [Compound 1.008]	5 (5=81-100%)	5 (5=81-100%)	5 (5=81-100%)	4 (4=61-80%)	5 (5=81-100%)	5 (5=81-100%)	5 (5=81-100%)	5 (5=81-100%)	5 (5=81-100%)	5 (5=81-100%)
Cn1ccnc1-c1nc(C(F)(F)F)cn1Cc1ncc(Cl)cn1 [Compound 1.006]	1 (1=0-20%)	1 (1=0-20%)	1 (1=0-20%)	1 (1=0-20%)	1 (1=0-20%)	1 (1=0-20%)	1 (1=0-20%)	1 (1=0-20%)	1 (1=0-20%)	1 (1=0-20%)
Cn1ccc(-c2nc(C(F)(F)F)cn2Cc2ncc(Cl)cn2)n1 [Compound 1.004]	1 (1=0-20%)	1 (1=0-20%)	1 (1=0-20%)	1 (1=0-20%)		1 (1=0-20%)	1 (1=0-20%)	1 (1=0-20%)	1 (1=0-20%)	
FC(F)c1cn(Cc2ncc(Cl)cn2)c(-c2ccc(Cl)s2)n1 [Compound 1.058, 5-chloro-2-[[2-(5-chloro-2-thienyl)-4-(difluoromethyl)imidazol-1-yl]methyl]pyrimidine]	5 (5=81-100%)	5 (5=81-100%)	4 (4=61-80%)	4 (4=61-80%)		5 (5=81-100%)	5 (5=81-100%)	5 (5=81-100%)	5 (5=81-100%)	
CS(=O)(=O)c1ccc(-c2nc(C(F)(F)F)cn2Cc2ncc(Cl)cn2)s1 [Compound 1.003]	4 (4=61-80%)	4 (4=61-80%)	5 (5=81-100%)	4 (4=61-80%)		5 (5=81-100%)	5 (5=81-100%)	5 (5=81-100%)	5 (5=81-100%)	
Fc1cc(Cl)cnc1Cn1cc(C(F)(F)F)nc1-c1ccc(Cl)s1 [Compound 1.051]	5 (5=81-100%)	5 (5=81-100%)	4 (4=61-80%)	3 (3=41-60%)		5 (5=81-100%)	5 (5=81-100%)	5 (5=81-100%)	4 (4=61-80%)	
Cc1nnsc1-c1nc(C(F)(F)F)cn1Cc1ncc(Cl)cn1 [Compound 1.007]	4 (4=61-80%)	5 (5=81-100%)	2 (2=21-40%)	4 (4=61-80%)		5 (5=81-100%)	5 (5=81-100%)	4 (4=61-80%)	5 (5=81-100%)	
N#Cc1ccc(Cn2cc(C(F)(F)F)nc2-c2ccc(Cl)s2)nc1 [Compound 1.049]	5 (5=81-100%)	5 (5=81-100%)	4 (4=61-80%)	4 (4=61-80%)		5 (5=81-100%)	5 (5=81-100%)	4 (4=61-80%)	5 (5=81-100%)	
Fc1ccc(Cn2cc(C(F)(F)F)nc2-c2ccc(Cl)s2)nc1 [Compound 1.050]	4 (4=61-80%)	4 (4=61-80%)	4 (4=61-80%)	4 (4=61-80%)		5 (5=81-100%)	5 (5=81-100%)	5 (5=81-100%)	5 (5=81-100%)	
FC(F)(F)c1cn(Cc2ncc(Cl)cn2)c(-c2sccc2Cl)n1 [Compound 1.002]	1 (1=0-20%)	1 (1=0-20%)	1 (1=0-20%)	1 (1=0-20%)		2 (2=21-40%)	2 (2=21-40%)	1 (1=0-20%)	1 (1=0-20%)	
